biological target: T1, full length AKT E17K (Homo sapiens, UniProt P31749, E17K); assay: NanoBRET Target Engagement (TE) Assay; assay type: cell-based; settings: competitive displacement of tracer in cells, read-out: AKT1 E17K IC50
T1 construct: host or cells: HEK-293 (ATCC CRL-1573)
Procedure, shortened: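 Compound and tracer incubated 2 h before luminescence at donor 450 nm and acceptor 600 nm, with extracellular signal inhibited. EC50 by sigmoidal variable-slope regression.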

T1 sequence (P31749 whole entry E17K): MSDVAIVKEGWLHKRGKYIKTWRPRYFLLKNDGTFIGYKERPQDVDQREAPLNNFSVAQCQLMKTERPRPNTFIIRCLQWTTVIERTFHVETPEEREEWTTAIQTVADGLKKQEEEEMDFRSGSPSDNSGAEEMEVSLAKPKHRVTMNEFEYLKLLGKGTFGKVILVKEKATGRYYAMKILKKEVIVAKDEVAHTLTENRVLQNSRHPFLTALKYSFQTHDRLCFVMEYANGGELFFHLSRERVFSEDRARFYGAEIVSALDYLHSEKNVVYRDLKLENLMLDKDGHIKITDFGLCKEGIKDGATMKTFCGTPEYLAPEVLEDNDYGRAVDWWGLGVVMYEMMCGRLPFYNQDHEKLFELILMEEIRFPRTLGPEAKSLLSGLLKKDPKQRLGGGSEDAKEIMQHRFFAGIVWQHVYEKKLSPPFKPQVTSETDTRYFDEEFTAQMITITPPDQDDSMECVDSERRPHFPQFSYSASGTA

SMILES	IC50 [nM]
N#Cc1nccc(NC2CCN(Cc3ccc(-n4c(-c5conc5N)nc5ccc(-c6ccc(F)cn6)nc54)cc3)CC2)n1 [Example 622, 4-((1-(4-(2-(3-Aminoisoxazol-4-yl)-5-(5-fluoropyridin-2-yl)-3H-imidazo[4,5-b]pyridin-3-yl)benzyl)piperidin-4-yl)amino)pyrimidine-2-carbonitrile]	60 to 600
N#Cc1cc(NC2CCN(Cc3ccc(-n4c(-c5cccnc5N)nc5ccc(-c6cccc(Cl)c6)nc54)cc3)CC2)ncn1 [Example 373, 6-((1-(4-(2-(2-Aminopyridin-3-yl)-5-(3-chlorophenyl)-3H-imidazo[4,5-b]pyridin-3-yl)benzyl)piperidin-4-yl)amino)pyrimidine-4-carbonitrile]	15 to 60
Cc1nocc1-c1ccc2nc(-c3cccnc3N)n(-c3ccc(CN4CCC(Nc5ccnc(C#N)n5)CC4)cc3)c2n1 [Example 464, 4-((1-(4-(2-(2-Aminopyridin-3-yl)-5-(3-methylisoxazol-4-yl)-3H-imidazo[4,5-b]pyridin-3-yl)benzyl)piperidin-4-yl)amino)pyrimidine-2-carbonitrile]	< 15
CN1CCN(c2ccc3nc(-c4cccnc4N)n(-c4ccc(CN5CCN(c6ccnc(C#N)n6)CC5)cc4)c3n2)CCC1=O [Example 345, 4-(4-(4-(2-(2-Aminopyridin-3-yl)-5-(4-methyl-5-oxo-1,4-diazepan-1-yl)-3H-imidazo[4,5-b]pyridin-3-yl)benzyl)piperazin-1-yl)pyrimidine-2-carbonitrile]	60 to 600
Cc1cnn(-c2ccc3nc(-c4cccnc4N)n(-c4ccc(CN5CCC(Nc6ccnc(C#N)n6)CC5)cc4)c3n2)n1 [Example 568, 4-((1-(4-(2-(2-Aminopyridin-3-yl)-5-(4-methyl-2H-1,2,3-triazol-2-yl)-3H-imidazo[4,5-b]pyridin-3-yl)benzyl)piperidin-4-yl)amino)pyrimidine-2-carbonitrile]	< 15
Cc1cc2nc(-c3cccnc3N)n(-c3ccc(CN4CCC(Nc5ccnc(C#N)n5)CC4)cc3)c2nc1C [Example 412, 4-((1-(4-(2-(2-Aminopyridin-3-yl)-5,6-dimethyl-3H-imidazo[4,5-b]pyridin-3-yl)benzyl)piperidin-4-yl)amino)pyrimidine-2-carbonitrile]	< 15
N#Cc1nccc(NC2CCN(Cc3ccc(-n4c(-c5cccnc5N)nc5ccc(-c6cccc(C(F)(F)F)c6)nc54)cc3)CC2)n1 [Example 530, 4-((1-(4-(2-(2-Aminopyridin-3-yl)-5-(3-(trifluoromethyl)phenyl)-3H-imidazo[4,5-b]pyridin-3-yl)benzyl)piperidin-4-yl)amino)pyrimidine-2-carbonitrile]	15 to 60
N#Cc1ccc(-c2ccc3nc(-c4cccnc4N)n(-c4ccc(CN5CCC(Nc6nccc(C#N)n6)CC5)cc4)c3n2)cc1 [Example 321, 2-((1-(4-(2-(2-Aminopyridin-3-yl)-5-(4-cyanophenyl)-3H-imidazo[4,5-b]pyridin-3-yl)benzyl)piperidin-4-yl)amino)pyrimidine-4-carbonitrile]	60 to 600
N#Cc1nccc(NC2CCN(Cc3ccc(-n4c(-c5cccnc5N)nc5ccc(-n6ccnn6)nc54)cc3)CC2)n1 [Example 591, 4-((1-(4-(2-(2-Aminopyridin-3-yl)-5-(1H-1,2,3-triazol-1-yl)-3H-imidazo[4,5-b]pyridin-3-yl)benzyl)piperidin-4-yl)amino)pyrimidine-2-carbonitrile]	< 15
N#Cc1cc(N2C[C@@H]3C[C@H]2CN3Cc2ccc(-n3c(-c4cccnc4N)nc4ccc(-c5ccccc5)nc43)cc2)ncn1 [Example 376, 6-((1S,4S)-5-(4-(2-(2-Aminopyridin-3-yl)-5-phenyl-3H-imidazo[4,5-b]pyridin-3-yl)benzyl)-2,5-diazabicyclo[2.2.1]heptan-2-yl)pyrimidine-4-carbonitrile]	60 to 600
Cc1cc(-c2ccc3nc(-c4cccnc4N)n(-c4ccc(CN5CCC(Nc6ccnc(C#N)n6)CC5)cc4)c3n2)[nH]n1 [Example 465, 4-((1-(4-(2-(2-Aminopyridin-3-yl)-5-(3-methyl-1H-pyrazol-5-yl)-3H-imidazo[4,5-b]pyridin-3-yl)benzyl)piperidin-4-yl)amino)pyrimidine-2-carbonitrile]	< 15
CC(C)C(=O)Nc1cccc(-c2ccc3nc(-c4cccnc4N)n(-c4ccc(CN5CCC(Nc6ccnc(C#N)n6)CC5)cc4)c3n2)c1 [Example 518, N-(3-(2-(2-Aminopyridin-3-yl)-3-(4-((4-((2-cyanopyrimidin-4-yl)amino)piperidin-1-yl)methyl)phenyl)-3H-imidazo[4,5-b]pyridin-5-yl)phenyl)isobutyramide]	< 15
CS(=O)(=O)c1ccc2nc(-c3cccnc3N)n(-c3ccc(CN4CCC(Nc5ccnc(C#N)n5)CC4)cc3)c2n1 [Example 436, 4-((1-(4-(2-(2-Aminopyridin-3-yl)-5-(methylsulfonyl)-3H-imidazo[4,5-b]pyridin-3-yl)benzyl)piperidin-4-yl)amino)pyrimidine-2-carbonitrile]	60 to 600
N#Cc1nccc(NC2CCN(Cc3ccc(-n4c(-c5cccnc5N)nc5ccc(-c6cn[nH]n6)nc54)cc3)CC2)n1 [Example 613, 4-((1-(4-(2-(2-Aminopyridin-3-yl)-5-(2H-1,2,3-triazol-4-yl)-3H-imidazo[4,5-b]pyridin-3-yl)benzyl)piperidin-4-yl)amino)pyrimidine-2-carbonitrile]	< 15
N#Cc1nccc(NC2CCN(Cc3ccc(-n4c(-c5ccccc5N)nc5ccc(-c6ccc(F)cn6)nc54)cc3)CC2)n1 [Example 576, 4-((1-(4-(2-(2-Aminophenyl)-5-(5-fluoropyridin-2-yl)-3H-imidazo[4,5-b]pyridin-3-yl)benzyl)piperidin-4-yl)amino)pyrimidine-2-carbonitrile]	15 to 60
CC(C)Oc1ccc(-c2ccc3nc(-c4cccnc4N)n(-c4ccc(CN5CCC(Nc6ccnc(C#N)n6)CC5)cc4)c3n2)cn1 [Example 642, 4-((1-(4-(2-(2-Aminopyridin-3-yl)-5-(6-isopropoxypyridin-3-yl)-3H-imidazo[4,5-b]pyridin-3-yl)benzyl)piperidin-4-yl)amino)pyrimidine-2-carbonitrile]	< 15

same assay, conditions: competitive tracer displacement in living cells, read-out: AKT1 E17K IC50

SMILES	IC50 [nM]
N#Cc1ccnc(NC2CCN(Cc3ccc(-n4c(-c5cccnc5N)nc5ccc(-c6ccccc6F)nc54)cc3)CC2)n1 [Example 313, 2-((1-(4-(2-(2-Aminopyridin-3-yl)-5-(2-fluorophenyl)-3H-imidazo[4,5-b]pyridin-3-yl)benzyl)piperidin-4-yl)amino)pyrimidine-4-carbonitrile]	< 15
N#Cc1cccnc1OC1CCN(Cc2ccc(-n3c(-c4cccnc4N)nc4cc(-c5ccccc5)cnc43)cc2)CC1 [Example 12, 2-((1-(4-(2-(2-Aminopyridin-3-yl)-6-phenyl-3H-imidazo[4,5-b]pyridin-3-yl)benzyl)piperidin-4-yl)oxy)nicotinonitrile]	600 to 10000
N#Cc1cccc(NC2CCN(Cc3ccc(-n4c(-c5cccnc5N)nc5cccnc54)cc3)CC2)n1 [Example 63, 6-((1-(4-(2-(2-Aminopyridin-3-yl)-3H-imidazo[4,5-b]pyridin-3-yl)benzyl)piperidin-4-yl)amino)picolinonitrile]	600 to 10000
N#Cc1cc(N2CC3CCC(C2)N3Cc2ccc(-n3c(-c4cccnc4N)nc4ccc(-c5ccccc5)nc43)cc2)ncn1 [Example 213, 6-(8-(4-(2-(2-Aminopyridin-3-yl)-5-phenyl-3H-imidazo[4,5-b]pyridin-3-yl)benzyl)-3,8-diazabicyclo[3.2.1]octan-3-yl)pyrimidine-4-carbonitrile]	15 to 60
N#Cc1nc2cc(C(=O)N3CCN(Cc4ccc(-n5c(-c6cccnc6N)nc6ccc(-c7ccccc7)nc65)cc4)CC3)ccc2s1 [Example 184, 5-(4-(4-(2-(2-aminopyridin-3-yl)-5-phenyl-3H-imidazo[4,5-b]pyridin-3-yl)benzyl)piperazine-1-carbonyl)benzo[d]thiazole-2-carbonitrile]	< 15
N#Cc1cc(C(=O)NC2CCN(Cc3ccc(-n4c(-c5cccnc5N)nc5cccnc54)cc3)CC2)ncn1 [Example 33, N-(1-(4-(2-(2-Aminopyridin-3-yl)-3H-imidazo[4,5-b]pyridin-3-yl)benzyl)piperidin-4-yl)-6-cyanopyrimidine-4-carboxamide]	600 to 10000
C[C@@H]1CN(Cc2ccc(-n3c(-c4cccnc4N)nc4ccc(-c5ccccc5)nc43)cc2)CCN1c1cc(C#N)ncn1 [Example 227, (R)-6-(4-(4-(2-(2-Aminopyridin-3-yl)-5-phenyl-3H-imidazo[4,5-b]pyridin-3-yl)benzyl)-2-methylpiperazin-1-yl)pyrimidine-4-carbonitrile]	60 to 600
N#Cc1ncnc(N2CCC3(CC2)CN(Cc2ccc(-n4c(-c5cccnc5N)nc5ccc(-c6ccccc6)nc54)cc2)C3)n1 [Example 268, 4-(2-(4-(2-(2-Aminopyridin-3-yl)-5-phenyl-3H-imidazo[4,5-b]pyridin-3-yl)benzyl)-2,7-diazaspiro[3.5]nonan-7-yl)-1,3,5-triazine-2-carbonitrile]	< 15
N#Cc1cc(C(=O)NC2CCN(Cc3ccc(-n4c(-c5cccnc5N)nc5ccc(-c6ccccc6)nc54)cc3)CC2)ccn1 [Example 55, N-(1-(4-(2-(2-Aminopyridin-3-yl)-5-phenyl-3H-imidazo[4,5-b]pyridin-3-yl)benzyl)piperidin-4-yl)-2-cyanoisonicotinamide]	15 to 60
N#Cc1ncnc(N2C[C@H]3C[C@@H]2CN3Cc2ccc(-n3c(-c4cccnc4N)nc4ccc(-c5ccccc5)nc43)cc2)n1 [Example 272, 4-((1R,4R)-5-(4-(2-(2-aminopyridin-3-yl)-5-phenyl-3H-imidazo[4,5-b]pyridin-3-yl)benzyl)-2,5-diazabicyclo[2.2.1]heptan-2-yl)-1,3,5-triazine-2-carbonitrile]	< 15
N#Cc1ncnc(N2CC3(CCN(Cc4ccc(-n5c(-c6cccnc6N)nc6ccc(-c7ccccc7)nc65)cc4)CC3)C2)n1 [Example 249, 4-(7-(4-(2-(2-aminopyridin-3-yl)-5-phenyl-3H-imidazo[4,5-b]pyridin-3-yl)benzyl)-2,7-diazaspiro[3.5]nonan-2-yl)-1,3,5-triazine-2-carbonitrile]	15 to 60
